Test results published in ChEMBL document CHEMBL1201862, “PubChem BioAssay data set” (2004).
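Interpolation was linear, between the two tested concentrations surrounding the appropriate level; five concentrations were tested over 48 hours in 96-well plates. GI50: concentration for 50% inhibition of growth.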 Active and inactive are the calls of the source. Rule as the data show it: active = GI50 up to about 1.1 µM and inactive = higher. Residues, ends and D or L forms follow the SMILES beside them. *: point of attachment. Boc = CC(C)(C)OC(=O)*; OBn = c1ccc(CO*)cc1; Bn = c1ccc(C*)cc1

Tests used:
Test in all cases: growth of human tumour cells (NCI), 48 h
786-0 = tested on: 786-0
ACHN = tested on: ACHN
CAKI-1 = tested on: CAKI-1
COLO 205 = tested on: COLO 205
HOP-92 = tested on: HOP-92
Hs-578T = tested on: Hs-578T
NCI-H226 = tested on: NCI-H226
NCI-H23 = tested on: NCI-H23
NCI/ADR-RES = tested on: NCI/ADR-RES
OVCAR-8 = tested on: OVCAR-8
SF-539 = tested on: SF-539
SK-MEL-28 = tested on: SK-MEL-28
SK-MEL-5 = tested on: SK-MEL-5
UACC-62 = tested on: UACC-62
EKVX = tested on: EKVX
OVCAR-4 = tested on: OVCAR-4
OVCAR-5 = tested on: OVCAR-5
T47D = tested on: T47D
TK-10 = tested on: TK-10
BT-549 = tested on: BT-549

Row | Compound | GI50 (786-0) | GI50 (ACHN) | GI50 (CAKI-1) | GI50 (COLO 205) | GI50 (HOP-92) | GI50 (Hs-578T) | GI50 (NCI-H226) | GI50 (NCI-H23) | GI50 (NCI/ADR-RES) | GI50 (OVCAR-8) | GI50 (SF-539) | GI50 (SK-MEL-28) | GI50 (SK-MEL-5) | GI50 (UACC-62) | GI50 (EKVX) | GI50 (OVCAR-4) | GI50 (OVCAR-5) | GI50 (T47D) | GI50 (TK-10) | GI50 (BT-549)
1 | COc1ccc(CC2NC(=O)/C=C/CC(C(C)C3OC3c3ccccc3)OC(=O)C(CC(C)C)OC(=O)C(C)CNC2=O)cc1Cl (centres undefined) | < 1e-05 µM (active) | 2.81e-05 µM (active) | 1.01e-05 µM (active) | < 1e-05 µM (active) | 0.000205 µM (active) | 1.78e-05 µM (active) | 2.4e-05 µM (active) | 2.07e-05 µM (active) | 4.81e-05 µM (active) | 2.32e-05 µM (active) | 1.34e-05 µM (active) | 2.43e-05 µM (active) | < 1e-05 µM (active) | 1.1e-05 µM (active) | – | – | – | – | – | –
2 | Nc1ccccc1C(=O)CCC1C(=O)NC(=S)NC1=O | > 100 µM (inactive) | > 100 µM (inactive) | > 100 µM (inactive) | > 100 µM (inactive) | > 91.4 µM (inactive) | > 100 µM (inactive) | > 100 µM (inactive) | > 100 µM (inactive) | > 100 µM (inactive) | > 100 µM (inactive) | > 100 µM (inactive) | > 100 µM (inactive) | > 100 µM (inactive) | > 100 µM (inactive) | > 100 µM (inactive) | > 100 µM (inactive) | > 100 µM (inactive) | > 100 µM (inactive) | > 100 µM (inactive) | –
3 | CCN(CC)Cc1ccccc1CC(=O)N1c2ccccc2C(=O)Nc2cccnc21 | 62.2 µM (inactive) | > 100 µM (inactive) | > 100 µM (inactive) | 86.1 µM (inactive) | > 100 µM (inactive) | > 100 µM (inactive) | > 100 µM (inactive) | > 100 µM (inactive) | 59.6 µM (inactive) | > 100 µM (inactive) | > 100 µM (inactive) | > 100 µM (inactive) | > 100 µM (inactive) | > 100 µM (inactive) | > 100 µM (inactive) | > 100 µM (inactive) | > 100 µM (inactive) | > 100 µM (inactive) | > 100 µM (inactive) | –
4 | COc1ccc(CSc2ccccc2Cn2cccc2)cc1OC | > 100 µM (inactive) | 10.4 µM (inactive) | 93.1 µM (inactive) | > 100 µM (inactive) | – | – | > 100 µM (inactive) | 10.9 µM (inactive) | 34.3 µM (inactive) | > 100 µM (inactive) | > 100 µM (inactive) | > 100 µM (inactive) | 22.4 µM (inactive) | 71.6 µM (inactive) | 82.8 µM (inactive) | 39.8 µM (inactive) | > 100 µM (inactive) | 35.2 µM (inactive) | > 100 µM (inactive) | 46 µM (inactive)
5 | CCC(C=O)P1(=O)OC(C)(C)CN1C(C)(C)C (centres undefined) | > 100 µM (inactive) | > 100 µM (inactive) | > 100 µM (inactive) | > 100 µM (inactive) | – | – | > 100 µM (inactive) | > 100 µM (inactive) | 92.3 µM (inactive) | > 100 µM (inactive) | > 100 µM (inactive) | – | > 100 µM (inactive) | > 100 µM (inactive) | 91.4 µM (inactive) | > 100 µM (inactive) | > 100 µM (inactive) | 31.6 µM (inactive) | 93.3 µM (inactive) | > 100 µM (inactive)
6 | CCCS(=O)(=O)/C(=C(\c1ccc(Br)cc1)S(=O)(=O)CCC)c1ccc(Br)cc1 | > 10 µM (inactive) | > 10 µM (inactive) | > 10 µM (inactive) | > 10 µM (inactive) | > 10 µM (inactive) | – | > 10 µM (inactive) | > 10 µM (inactive) | – | > 10 µM (inactive) | > 10 µM (inactive) | > 10 µM (inactive) | > 10 µM (inactive) | > 10 µM (inactive) | > 10 µM (inactive) | > 10 µM (inactive) | > 10 µM (inactive) | – | > 10 µM (inactive) | –
7 | Cc1cc(=O)oc2c(CNC(CO)C(=O)O)c(O)ccc12 (centres undefined) | > 100 µM (inactive) | > 100 µM (inactive) | > 100 µM (inactive) | > 100 µM (inactive) | > 100 µM (inactive) | > 100 µM (inactive) | > 100 µM (inactive) | > 100 µM (inactive) | > 100 µM (inactive) | > 100 µM (inactive) | > 100 µM (inactive) | > 100 µM (inactive) | > 100 µM (inactive) | > 100 µM (inactive) | > 100 µM (inactive) | > 100 µM (inactive) | > 100 µM (inactive) | > 100 µM (inactive) | 80.9 µM (inactive) | –
8 | CCOC(=O)C1=C(C)N(Cc2ccccc2)C(C)=C(C(=O)OCC)C1c1ccccc1O | 44.6 µM (inactive) | 28.1 µM (inactive) | 27.2 µM (inactive) | 13 µM (inactive) | 13.7 µM (inactive) | – | 19.4 µM (inactive) | 24 µM (inactive) | – | 31.7 µM (inactive) | 27.7 µM (inactive) | 19.2 µM (inactive) | 16.1 µM (inactive) | 18.1 µM (inactive) | 24.7 µM (inactive) | 34.8 µM (inactive) | > 100 µM (inactive) | – | 47.5 µM (inactive) | –
9 | O=C(O)CCCNc1ncc2c(n1)-c1ccccc1OC2 | > 100 µM (inactive) | > 100 µM (inactive) | > 100 µM (inactive) | > 100 µM (inactive) | > 100 µM (inactive) | > 100 µM (inactive) | > 100 µM (inactive) | 77.4 µM (inactive) | > 100 µM (inactive) | > 100 µM (inactive) | > 100 µM (inactive) | > 100 µM (inactive) | > 100 µM (inactive) | > 100 µM (inactive) | > 100 µM (inactive) | > 100 µM (inactive) | > 100 µM (inactive) | – | > 100 µM (inactive) | –
10 | NCCNCCNCc1c2ccccc2c(CNCCNCCN)c2ccccc12 | 38.6 µM (inactive) | > 100 µM (inactive) | > 100 µM (inactive) | 52.1 µM (inactive) | 22.3 µM (inactive) | – | 50.1 µM (inactive) | > 100 µM (inactive) | – | 47.9 µM (inactive) | 37.5 µM (inactive) | > 100 µM (inactive) | > 100 µM (inactive) | 34 µM (inactive) | > 100 µM (inactive) | 41.6 µM (inactive) | > 100 µM (inactive) | – | > 100 µM (inactive) | –
11 | O=C1C(Cl)=C(N2CCN(CCOCCO)CC2)C(=O)c2ccccc21 | 11.7 µM (inactive) | 7.36 µM (inactive) | 15.7 µM (inactive) | 15.2 µM (inactive) | 1.49 µM (inactive) | 19.1 µM (inactive) | 16.6 µM (inactive) | 13.6 µM (inactive) | 12.2 µM (inactive) | 14.9 µM (inactive) | 18.9 µM (inactive) | 17.3 µM (inactive) | 14.7 µM (inactive) | 6.32 µM (inactive) | 18.4 µM (inactive) | 2.19 µM (inactive) | 22.4 µM (inactive) | 1.85 µM (inactive) | 20.2 µM (inactive) | –
12 | CN(C)CCNC(=O)c1cccc2nc3ccc4ccccc4c3nc12 | 0.125 µM (active) | 0.0658 µM (active) | 0.0518 µM (active) | 0.0434 µM (active) | 0.0957 µM (active) | – | 0.178 µM (active) | 0.0942 µM (active) | – | 0.0574 µM (active) | 0.0652 µM (active) | 0.29 µM (active) | 0.105 µM (active) | 0.126 µM (active) | 0.126 µM (active) | 0.114 µM (active) | 0.21 µM (active) | – | 0.139 µM (active) | –
13 | C[C@@H]1C(O)CC[C@H](C)C12CC=CC2=O (some centres undefined) | > 100 µM (inactive) | > 100 µM (inactive) | > 100 µM (inactive) | > 100 µM (inactive) | > 100 µM (inactive) | > 100 µM (inactive) | > 100 µM (inactive) | > 100 µM (inactive) | > 100 µM (inactive) | – | > 100 µM (inactive) | > 100 µM (inactive) | > 100 µM (inactive) | > 100 µM (inactive) | > 100 µM (inactive) | > 100 µM (inactive) | > 100 µM (inactive) | > 100 µM (inactive) | > 100 µM (inactive) | –
14 | CSc1ccc2c(cc1=O)C(NC(=O)c1cc(O)c(OC(=O)O)c(O)c1)CCc1cc(O)c(O)c(O)c1-2 (centres undefined) | 34 µM (inactive) | 33.8 µM (inactive) | 19.3 µM (inactive) | 30.3 µM (inactive) | 22.8 µM (inactive) | – | 18.8 µM (inactive) | 19.2 µM (inactive) | – | 28.9 µM (inactive) | 26.5 µM (inactive) | 24.4 µM (inactive) | 15.7 µM (inactive) | 14.7 µM (inactive) | 20 µM (inactive) | 20.2 µM (inactive) | > 8.99 µM (inactive) | – | > 89.9 µM (inactive) | –
15 | CC#Cc1ccc(-c2ccccc2)s1 | > 100 µM (inactive) | > 100 µM (inactive) | > 100 µM (inactive) | > 100 µM (inactive) | > 100 µM (inactive) | > 100 µM (inactive) | > 100 µM (inactive) | 68.9 µM (inactive) | > 100 µM (inactive) | > 100 µM (inactive) | > 100 µM (inactive) | > 100 µM (inactive) | > 100 µM (inactive) | > 100 µM (inactive) | > 100 µM (inactive) | > 100 µM (inactive) | > 100 µM (inactive) | – | > 100 µM (inactive) | –
16 | CC(C)CC(NC(=O)C(Cc1ccccc1)NC(=O)C(COCc1ccccc1)NC(=O)OC(C)(C)C)C(=O)OCc1ccccc1 (stereo not drawn) (Boc-Ser(Bn)-Phe-Leu-OBn; configuration not given here) | 17.1 µM (inactive) | 17.9 µM (inactive) | 30 µM (inactive) | 17.5 µM (inactive) | – | – | – | 18.5 µM (inactive) | > 100 µM (inactive) | 18.7 µM (inactive) | 33.9 µM (inactive) | 19.5 µM (inactive) | – | 17.5 µM (inactive) | 24.8 µM (inactive) | 42.7 µM (inactive) | 39.4 µM (inactive) | > 100 µM (inactive) | 34 µM (inactive) | –
